Converted amounts (≈) assume the structure as drawn. The source made the active and inactive calls. No cut-off for these calls is given here.
Columns and labels:
[1] = test system: Mycobacterium tuberculosis; experiment: Antimycobacterial activity against Mycobacterium tuberculosis H37Ra assessed as inhibition of bacterial growth measured for 5 days by luminometer; format: functional; conditions: 120 h, time 5 day
Mycobacterium marinum = experiment: Antimycobacterial activity against Mycobacterium marinum assessed as inhibition of bacterial growth measured for 5 days by luminometer; format: functional; conditions: 120 h, time 5 day
[2] = Octanol-water distribution coefficient, logD of the compound at pH 7.4 by HPLC analysis; format: physicochemical
[3] = Kinetic solubility of compound in DMSO at pH 2 incubated for 30 mins by laser nephelometry; format: physicochemical; conditions: read-out: Kinetic_solubility
[4] = Kinetic solubility of compound in DMSO at pH 6.5 incubated for 30 mins by laser nephelometry; format: physicochemical; conditions: read-out: Kinetic_solubility
[5] = Metabolic stability in mouse liver microsomes assessed as half life incubated for 60 mins in presence of NADPH; format: ADME, Microsome
[6] = Metabolic stability in mouse liver microsomes assessed as intrinsic clearance incubated for 60 mins in presence of NADPH; format: ADME, Microsome; conditions: read-out: CLH
[7] = test system: Mycobacterium tuberculosis; experiment: Antimycobacterial activity against Mycobacterium tuberculosis H37Ra infected in mouse assessed as reduction in relative light unit in lung at 300 mg/kg,po administrated once daily for 5 days; format: functional, organism-based; conditions: time 5.0 day
A549 = experiment: Cytotoxicity against human A549 cells incubated for 48 hrs by MTT assay; format: functional, cell-based; conditions: A549, 48 h

## COc1cccc(CSc2ccc3nc(-c4ccccc4)c(OC)n3n2)c1
[1]
  MIC90: ≤ 1.66 µM
Mycobacterium marinum
  MIC90: 2.65 µM (≈ 1 µg/mL)
[2]
  logD: 4.8
[3]
  solubility kinetic at 0.5 h: 3.1 µg/mL (≈ 8.21 µM)
[4]
  solubility kinetic at 0.5 h: < 1.6 µg/mL
[5]
  half-life: < 2 min
[6]
  microsomal CLint: > 866 µL/min/mg
[7]
  Activity: inactive
A549
  IC50: > 260 µM

Reference: ChEMBL document CHEMBL5625205, “3-Methoxy-2-phenylimidazo[1,2-b]pyridazines highly active against Mycobacterium tuberculosis and Mycobacterium marinum” (Eur J Med Chem, 2023)
